From patent publication US9155752B2, “Liver function-improving agent” (UENO FINE CHEMICALS INDUSTRY, LTD., priority 2012, dated 2015)

System: NASH mice
Test: Oil Red staining of liver, fat accumulation area % (Test Example 3)
Assay type: in vivo
Details: for Fat accumulation area %, Significant difference: Student-t, 5% level
Excerpt: A solid diet CE-2 (lipid 4.6% by weight, manufactured by CLEA Japan, Inc.) was used as a normal diet. A solid diet, High Fat Diet 32 (lipid 32.0% by weight, sucrose 6.75% by weight, manufactured by CLEA Japan, Inc.), was used as a sucrose-containing high fat diet. As a maltitol-containing high-fat diet, a special diet (lipid 32.0% by weight, maltitol 6.08% by weight; manufactured by CLEA Japan, Inc.) obtained by replacing the total amount (6.75% by weight) of sucrose in a solid diet, High Fat Diet 32, with powdered maltitol (Whole Crystalline Maltitol Ueno 60M (purity of maltitol: 90%), manufactured by Ueno Fine Chemicals Industry Ltd.) was used. Sodium hypochlorite (PURELOX-S, manufactured by OYALOX Co., Ltd.) was added to pure water prepared by Elix-UV pure water producing apparatus, to a final concentration of 0.00009%, so that pure water for use in the test was obtained. An aqueous maltitol solution was prepared by dissolving powdered maltitol (Whole Crystalline Maltitol Ueno 60M (purity of maltitol: 90%), manufactured by Ueno Fine Chemicals Industry Ltd.) in pure water to a concentration of 1.8% (weight/volume). The purity of maltitol in the aqueous maltitol solution was 1.62%. Twenty-one female SPF mice (C57BL/6J, produced by CLEA Japan, Inc.) on day 14 of pregnancy were purchased and acclimation was performed. All animals were allowed to make a natural birth and a born male was used to produce a model. In addition, the weaning was at 4 weeks after birth. Streptozotocin (Sigma-Aldrich Japan K.K.) was adjusted to a concentration of 10 mg/mL with a physiological saline solution (manufactured by Otsuka Pharmaceutical Factory, Inc.) and the solution was subcutaneously administered once to the back of 2-day-old male mice at a dose of 20 μL/mouse (200 μg/mouse). Afterwards, the mother animal took care of the baby until weaning. The weaning was on day 28±2 after birth. After the weaning, a normal diet was supplied ad libitum to animals receiving no streptozotocin (normal mice (group S1 and group 1)), and a sucrose-containing high fat diet was supplied ad libitum to animals receiving streptozotocin (NASH mice (group S2, group 2, group 3, and group 4). A normal diet was supplied ad libitum to normal mice (group 1). With respect to NASH mice, a sucrose-containing high fat diet was supplied ad libitum to the sucrose group (group 2), and a maltitol-containing high fat diet was supplied ad libitum to the maltitol-low dose group (group 3) and the maltitol-high dose group (group 4). An aqueous maltitol solution was supplied ad libitum only to the maltitol-high dose group (group 4) of 5 to 8 weeks of age, and pure water was supplied ad libitum to the groups other than group 4 of 5 to 8 weeks of age. Six male animals per group were assigned to groups S1 and S2, reared up to 5 weeks of age, and then necropsied. Eight male animals per group were assigned to groups 1, 2, 3 and 4, reared up to 8 weeks of age, and then necropsied. At scheduled necropsy of the animals of 5 or 8 weeks of age, all individuals were anesthetized with diethyl ether (manufactured by Sigma-Aldrich Japan K.K.) and a needle through which heparin sodium (Novo Heparin Injection 1000, manufactured by Mochida Pharmaceutical Co., Ltd.) had been passed was punctured to the heart to aspirate the whole blood, leading to euthanasia, followed by harvest of the organ. With respect to animals of 5 or 8 weeks of age at scheduled necropsy, the left outer lobe of the liver was immersed in a neutral formalin solution (manufactured by Wako Pure Chemical Industries, Ltd.) for fixation at room temperature for 24 hours, subjected to sucrose substitution, embedded in a tray for cryosection (CRYO DISH manufactured by Shoei Works Co., Ltd.) filled with O.C.T. compound (manufactured by Sakura Finetek Japan Co., Ltd.), immediately frozen with liquid nitrogen, and preserved at −80° C. for oil red staining. […]

Row | SMILES | Fat accumulation area %, Significant difference (Group 3 (low-dose maltitol) at 8 weeks vs group S2 at 5 weeks of age) | Fat accumulation area % (Oil Red staining), mean ± standard deviation (Group 3, low-dose maltitol: HFD32-M (maltitol 6.08%) + pure water from 5 to 8 weeks of age) [%] | Fat accumulation area %, Significant difference (Group 4 (high-dose maltitol) at 8 weeks vs group S2 at 5 weeks of age) | Fat accumulation area % (Oil Red staining), mean ± standard deviation (Group 4, high-dose maltitol: HFD32-M (maltitol 6.08%) + aqueous maltitol solution 1.62% from 5 to 8 weeks of age) [%] | Fat accumulation area %, Significant difference (Group 2 (sucrose) at 8 weeks vs group S2 at 5 weeks of age) | Fat accumulation area % (Oil Red staining), mean ± standard deviation (Group 2, sucrose group: HFD32 (sucrose 6.75%) + pure water, eight weeks of age) [%]
1 | OC[C@@H](O)[C@@H](O[C@H]1O[C@H](CO)[C@@H](O)[C@H](O)[C@H]1O)[C@H](O)[C@@H](O)CO [maltitol] | significantly low and Yes | 32.7 ± 7.6 | significantly low and Yes | 28.6 ± 5.5 |  | 
2 | OC[C@H]1O[C@@](CO)(O[C@H]2O[C@H](CO)[C@@H](O)[C@H](O)[C@H]2O)[C@@H](O)[C@@H]1O [sucrose, reference compound] |  |  |  |  | a significant difference was not observed and No | 34.7 ± 8.4
